PubChem BioAssay AID330 (DTP/NCI, 2004)
Several values for one entry are separate records, joined by “and”; a condition that tells them apart may be missing. Identical values can stand only once. Inconclusive results and toxic doses are left out. The calls were made as follows: active = survival T/C of 150% or more; inactive = T/C below 125% in these data.

Tested on: P388 leukemia ip, CD2F1 mice, survival T/C
Experiment: NCI In Vivo Anticancer Drug Screen. Data for tumor model P388 Leukemia (intraperitoneal) in CD2F1 (CDF1) mice
Details: endpoint: median survival time, higher = longer survival
How it was run: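 Mice carrying the transplanted tumor received test compound or vehicle. Survival was recorded in each group, and the value is the treated-group measurement divided by that of the vehicle-treated control group.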

[1] = dose: 60.0 mg/kg/injection, schedule: Q01DX005 (ip), vehicle: Klucel (hydroxypropylcellulose) (HPC)
[2] = dose: 100.0 mg/kg/injection, schedule: Q01DX001 (ip), vehicle: Klucel (hydroxypropylcellulose) (HPC)
[3] = dose: 120.0 mg/kg/injection, schedule: Q01DX005 (ip), vehicle: Klucel (hydroxypropylcellulose) (HPC)
[4] = dose: 200.0 mg/kg/injection, schedule: Q01DX001 (ip), vehicle: Klucel (hydroxypropylcellulose) (HPC)
[5] = dose: 240.0 mg/kg/injection, schedule: Q01DX005 (ip), vehicle: Klucel (hydroxypropylcellulose) (HPC)
[6] = dose: 60.0 mg/kg/injection, schedule: Q01DX005 (ip), vehicle: saline with Tween-80
[7] = dose: 120.0 mg/kg/injection, schedule: Q01DX005 (ip), vehicle: saline with Tween-80
[8] = dose: 240.0 mg/kg/injection, schedule: Q01DX005 (ip), vehicle: saline with Tween-80
[9] = dose: 50.0 mg/kg/injection, schedule: Q01DX005 (ip), vehicle: saline with Tween-80
[10] = dose: 100.0 mg/kg/injection, schedule: Q01DX005 (ip), vehicle: saline with Tween-80
[11] = dose: 50.0 mg/kg/injection, schedule: Q01DX009 (ip), vehicle: saline
[12] = dose: 50.0 mg/kg/injection, schedule: Q01DX005 (ip), vehicle: Klucel (hydroxypropylcellulose) (HPC)
[13] = dose: 200.0 mg/kg/injection, schedule: Q01DX005 (ip), vehicle: Klucel (hydroxypropylcellulose) (HPC)
[14] = dose: 25.0 mg/kg/injection, schedule: Q01DX009 (ip), vehicle: saline with Tween-80
[15] = dose: 50.0 mg/kg/injection, schedule: Q01DX009 (ip), vehicle: saline with Tween-80
[16] = dose: 100.0 mg/kg/injection, schedule: Q01DX009 (ip), vehicle: saline with Tween-80
[17] = dose: 200.0 mg/kg/injection, schedule: Q01DX009 (ip), vehicle: saline with Tween-80
[18] = dose: 12.5 mg/kg/injection, schedule: Q01DX009 (ip), vehicle: saline
[19] = dose: 25.0 mg/kg/injection, schedule: Q01DX009 (ip), vehicle: saline
[20] = dose: 25.0 mg/kg/injection, schedule: Q01DX005 (ip), vehicle: Klucel (hydroxypropylcellulose) (HPC)

Measured: T/C

NC(=O)c1c(Cl)nc2n1CCS2
inactive: [1] 94 % of control | [2] 107 % of control | [3] 95 % of control | [4] 100 % of control | [5] 88 % of control | dose: 400.0 mg/kg/injection, schedule: Q01DX001 (ip), vehicle: Klucel (hydroxypropylcellulose) (HPC) 109 % of control

C/C(=C1/SC(=S)NC1=O)c1ccc(Cl)c(O)c1
inactive: [6] 99 % of control | [7] 97 % of control | [8] 88 % of control

O=C(Nc1ccc(Cc2ccc(NC(=O)C34CC5CC(CC(C5)C3)C4)cc2)cc1)C12CC3CC(CC(C3)C1)C2
inactive: [9] 88 % of control | [10] 88 % of control

CC1N=C(SCc2ccc(Cl)cc2)N2C(C)N=C(SCc3ccc(Cl)cc3)N12 (stereo not given)
inactive: [11] 112 % of control | dose: 100.0 mg/kg/injection, schedule: Q01DX009 (ip), vehicle: saline 110 % of control | dose: 200.0 mg/kg/injection, schedule: Q01DX009 (ip), vehicle: saline 104 % of control

Cc1cccc(CO)c1-c1c(C)cccc1CO
inactive: [12] 101 % of control | dose: 100.0 mg/kg/injection, schedule: Q01DX005 (ip), vehicle: Klucel (hydroxypropylcellulose) (HPC) 108 % of control | [13] 100 % of control

Clc1ccc(N=Cc2ccc(C=Nc3ccc(Cl)c(Cl)c3)cc2)cc1Cl
inactive: [14] 103 % of control | [15] 90 % of control | [16] 88 % of control | [17] 94 % of control

COc1ccc(OCCC(=O)O)cc1
inactive: dose: 1.56 mg/kg/injection, schedule: Q01DX009 (ip), vehicle: saline with Tween-80 109 % of control | dose: 3.12 mg/kg/injection, schedule: Q01DX009 (ip), vehicle: saline with Tween-80 112 % of control | dose: 6.25 mg/kg/injection, schedule: Q01DX009 (ip), vehicle: saline with Tween-80 112 % of control and 86 % of control | [14] 105 % of control | [15] 102 % of control

OC(CC1CCCCN1)c1cc2c(Cl)cc(Cl)cc2c2cc(C(F)(F)F)ccc12 (stereo not given)
inactive: dose: 12.5 mg/kg/injection, schedule: Q01DX009 (ip), vehicle: saline with Tween-80 95 % of control | [14] 104 % of control | [15] 101 % of control

CC(=O)N(c1c(N)[nH]c(=O)n(C)c1=O)C1OC(CO)C(O)C(O)C1O (stereo not given)
inactive: dose: 60.0 mg/kg/injection, schedule: Q01DX005 (ip), vehicle: saline 99 % of control | dose: 120.0 mg/kg/injection, schedule: Q01DX005 (ip), vehicle: saline 99 % of control | dose: 240.0 mg/kg/injection, schedule: Q01DX005 (ip), vehicle: saline 97 % of control

CCCSCCSCCC
inactive: [14] 91 % of control | [15] 100 % of control | [16] 95 % of control

O=C1Cc2cccc3cccc1c23
inactive: [14] 90 % of control | [15] 104 % of control | [16] 96 % of control | [17] 111 % of control

COc1ccc(Nc2ncnc3ccccc23)cc1CN(CCCl)CCCl
inactive: [2] 100 % of control | [4] 90 % of control

NCCNCC[OH2+].NCCNCC[OH2+].[Ni+2].[O-][Cl+3]([O-])([O-])[O-]
inactive: [18] 100 % of control | [19] 93 % of control | [11] 106 % of control and 93 % of control

COc1ccc(CSC(=S)Nc2ccc(C)c(C)c2)cc1
inactive: dose: 50.0 mg/kg/injection, schedule: Q01DX009 (ip), vehicle: suspension in saline 99 % of control | dose: 100.0 mg/kg/injection, schedule: Q01DX009 (ip), vehicle: suspension in saline 100 % of control | dose: 200.0 mg/kg/injection, schedule: Q01DX009 (ip), vehicle: suspension in saline 99 % of control

C1=NCc2ccsc2-n2cccc21
inactive: [20] 100 % of control | [12] 105 % of control

N#C/C(=N\Nc1ccccc1Cl)C(=O)C1CC1
inactive: [1] 100 % of control | [3] 100 % of control | [5] 89 % of control

COc1ccc(CC2c3cc(OC)c(OC)cc3C=CN2C)cc1OC (stereo not given)
inactive: dose: 12.5 mg/kg/injection, schedule: Q01DX005 (ip), vehicle: Klucel (hydroxypropylcellulose) (HPC) 99 % of control | [20] 103 % of control | [12] 96 % of control

c1ccc2c(c1)Sc1ccccc1C2=C1c2ccccc2Sc2ccccc21
inactive: [9] 88 % of control | [10] 90 % of control | dose: 200.0 mg/kg/injection, schedule: Q01DX005 (ip), vehicle: saline with Tween-80 88 % of control

C1CCN2CC3CC(CN4CCCCC34)C2C1 (stereo not given)
inactive: dose: 1.87 mg/kg/injection, schedule: Q01DX005 (ip), vehicle: saline 100 % of control | dose: 3.75 mg/kg/injection, schedule: Q01DX005 (ip), vehicle: saline 101 % of control | dose: 6.2 mg/kg/injection, schedule: Q01DX007 (ip), vehicle: carboxymethylcellulose (CMC) 91 % of control | dose: 7.5 mg/kg/injection, schedule: Q01DX005 (ip), vehicle: saline 102 % of control | dose: 12.5 mg/kg/injection, schedule: Q01DX007 (ip), vehicle: carboxymethylcellulose (CMC) 100 % of control | dose: 15.0 mg/kg/injection, schedule: Q01DX005 (ip), vehicle: saline 100 % of control | dose: 25.0 mg/kg/injection, schedule: Q01DX005 (ip), vehicle: saline 92 % of control | dose: 25.0 mg/kg/injection, schedule: Q01DX007 (ip), vehicle: carboxymethylcellulose (CMC) 91 % of control | dose: 50.0 mg/kg/injection, schedule: Q01DX005 (ip), vehicle: saline 99 % of control

COC(=O)C1=C2Nc3ccccc3C23CCN2C4OC56C7CC4(CN5c4c(OC)cccc4C64CCN5CCC6OCCC6(C7)C54)C4OCCC4(C1)C23 (stereo not given)
inactive: dose: 100.0 mg/kg/injection, schedule: Q04DX002 (ip), vehicle: saline with Tween-80 101 % of control | dose: 200.0 mg/kg/injection, schedule: Q04DX002 (ip), vehicle: saline with Tween-80 101 % of control | dose: 400.0 mg/kg/injection, schedule: Q04DX002 (ip), vehicle: saline with Tween-80 101 % of control

C[n+]1ccc(/C=C/c2ccccc2)cc1
inactive: [14] 95 % of control | [15] 90 % of control | [16] 95 % of control | [17] 97 % of control

COc1ccc2ncc(CO)c(CO)c2c1
inactive: [13] 100 % of control

O=C1ON=C(COc2ccccc2)/C1=C\c1ccc(Cl)cc1
inactive: dose: 15.0 mg/kg/injection, schedule: Q01DX005 (ip), vehicle: saline with Tween-80 105 % of control | dose: 30.0 mg/kg/injection, schedule: Q01DX005 (ip), vehicle: saline with Tween-80 101 % of control | [6] 104 % of control

CNc1ncn(-c2c(C)cccc2C)c(=O)n1
inactive: [6] 101 % of control and 106 % of control | [7] 108 % of control | [8] 117 % of control

O=C(O)/C=C\C(=O)Nc1ccccn1
inactive: dose: 5.0 mg/kg/injection, schedule: Q01DX009 (ip), vehicle: saline with Tween-80 109 % of control | dose: 5.0 mg/kg/injection, schedule: Q01DX009 (ip), vehicle: saline 100 % of control | dose: 10.0 mg/kg/injection, schedule: Q01DX009 (ip), vehicle: saline with Tween-80 100 % of control | dose: 10.0 mg/kg/injection, schedule: Q01DX009 (ip), vehicle: saline 105 % of control | dose: 20.0 mg/kg/injection, schedule: Q01DX009 (ip), vehicle: saline with Tween-80 104 % of control | dose: 30.0 mg/kg/injection, schedule: Q01DX009 (ip), vehicle: saline 105 % of control | dose: 60.0 mg/kg/injection, schedule: Q01DX009 (ip), vehicle: saline 100 % of control

Cc1c(-c2ccccc2)ccnc1/C=N/NC(=S)NCCCN(C)C
inactive: dose: 12.5 mg/kg/injection, schedule: Q01DX009 (ip), vehicle: other 105 % of control | dose: 25.0 mg/kg/injection, schedule: Q01DX009 (ip), vehicle: other 114 % of control | dose: 50.0 mg/kg/injection, schedule: Q01DX009 (ip), vehicle: other 101 % of control and 112 % of control

Cn1cc(C(=O)O)c(=O)c2ccc(/C=C/c3ccc([N+](=O)[O-])o3)nc21
inactive: dose: 3.12 mg/kg/injection, schedule: Q01DX009 (ip), vehicle: saline 92 % of control | dose: 6.25 mg/kg/injection, schedule: Q01DX009 (ip), vehicle: saline 97 % of control | [18] 111 % of control | [19] 103 % of control
